The values below are quoted from earlier work in US9683008B2, “Synthetic bile acid compositions and methods” (Kythera Biopharmaceuticals, Inc., priority 2010, dated 2017).

The conditions of series [1]: neutral pH.
Series [2] has as its target albumin (Homo sapiens, UniProt P02768). Particulars: 0.4 mg/mL deoxycholate (comparable to the fasting state), in the presence of 26 mg/mL of albumin.

Chain of albumin (P02768 25-609): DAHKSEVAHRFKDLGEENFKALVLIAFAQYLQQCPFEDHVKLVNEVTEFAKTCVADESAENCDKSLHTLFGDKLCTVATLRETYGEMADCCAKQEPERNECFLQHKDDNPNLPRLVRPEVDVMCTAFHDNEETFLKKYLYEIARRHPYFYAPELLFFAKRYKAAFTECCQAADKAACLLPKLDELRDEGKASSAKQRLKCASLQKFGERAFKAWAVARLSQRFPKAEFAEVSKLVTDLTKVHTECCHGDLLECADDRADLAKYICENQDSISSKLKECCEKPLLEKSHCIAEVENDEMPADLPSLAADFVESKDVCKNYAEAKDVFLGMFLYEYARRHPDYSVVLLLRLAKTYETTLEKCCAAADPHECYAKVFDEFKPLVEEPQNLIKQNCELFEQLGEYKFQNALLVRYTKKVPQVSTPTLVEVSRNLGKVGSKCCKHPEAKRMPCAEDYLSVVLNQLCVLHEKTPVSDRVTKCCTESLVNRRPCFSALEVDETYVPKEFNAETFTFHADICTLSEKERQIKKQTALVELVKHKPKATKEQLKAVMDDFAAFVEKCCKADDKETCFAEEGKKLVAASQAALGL

Turning to `C[C@H](CCC(=O)[O-])[C@H]1CC[C@H]2[C@@H]3CC[C@@H]4C[C@H](O)CC[C@]4(C)[C@H]3C[C@H](O)[C@]12C.[Na+]` [sodium deoxycholate], the solubility in acetone result (acetone, compared with alcohol) is “even less soluble”. The “solubility in glacial acetic acid” value (glacial acetic acid, compared with alcohol) is listed as “even less soluble”. Where the note is “water”, the soluble in water is 333 mg/mL. For the same compound, the critical micelle concentration result in series [1] is “approximately 2.4 mg/mL”. For the same compound, the bound to albumin in series [2] is 98%.
